# Values quoted from earlier work in US20170312269A1, “COMPOSITIONS AND METHODS FOR REDUCING FOOD CRAVINGS” (OREXIGEN THERAPEUTICS, INC., priority 2005, published 2017).
# Settings: in vivo; cited from earlier work
smiles,measurement,value
CNCCC(Oc1ccc(C(F)(F)F)cc1)c1ccccc1 (stereo not shown) [fluoxetine],physiological half life,about 9 hours
